According to patent US4950602A, “Inhibition of lactate production by pyruvate adducts” (Cornell Research Foundation, Inc., priority 1987, dated 1990):
Entries after “also recorded” stand apart in the source; their conditions may differ.

Key:
[1] = target: T1, mitochondrial pig heart malate dehydrogenase (Sus scrofa, UniProt P00346); assay: Commercial mitochondrial malate dehydrogenase with RAP; type: biochemical; settings: 20 μM RAP
T1 construct: purchased Boehringer Mannheim Corp. (Indianapolis); host or cells: pig heart
From the text: Enzymes and enzyme assays. Rabbit muscle glyceraldehyde-3-phosphate dehydrogenase (80 U/mg: ammonium sulfate suspension), rabbit muscle glycerol-3-phosphate dehydrogenase (40 U/mg; ammonium sulfate suspension),beef liver glutamate dehydrogenase (120 U/mg: in 50% glycerol), mitochondrial pig heart malate dehydrogenase (1100 U/mg; in 50% glycerol) and yeast hexokinase (140 U/mg; ammonium sulfate suspension) were purchased from Boehringer Mannheim Corp. (Indianapolis). Beef heart lactate dehydrogenase (280 U/mg) was purchased from Worthington Biochemical Corporation (Freehold, N.J.). Porcine heart L-alanine aminotransferase (130 U/mg), rabbit muscle phosphofructokinase (140 U/mg; ammonium sulfate suspension), bovine heart α-ketoglutarate (8 U/mg) and pyruvate (5 U/mg) dehydrogenase complexes, sodium pyruvate, L-methionine-SR-sulfoximine, DL-vinylglycine, NAD^+, NADH and NAD^+ analogues (3-acetylpyridine, thionicotinamide, and 3-pyridinealdehyde adenine dinucleotides) were purchased from Sigma Chemical Company (St. Louis, Mo.).
Each of the enzymes was assayed by procedures in which change of absorbance at 340 nm due to NADH was followed essentially as described by Bergmeyer (1974, Methods of Enzymatic Analysis, 2nd Eng. Ed., Verlag Chemie Weinheim Academic Press, N.Y.) with the following exceptions. […]

[2] = target: T2, glyceraldehyde-3-phosphate dehydrogenase (Rattus norvegicus, UniProt P04797); assay: Rat brain glyceraldehyde-3-phosphate dehydrogenase with RAP; type: biochemical; settings: 20 μM RAP
T2 construct: from tissue; host or cells: rat brain
Protocol: (§1) Each of the enzymes was assayed by procedures in which change of absorbance at 340 nm due to NADH was followed essentially as described by Bergmeyer (1974, Methods of Enzymatic Analysis, 2nd Eng. Ed., Verlag Chemie Weinheim Academic Press, N.Y.) with the following exceptions. Phosphofructokinase was assayed according to the method of Lai et al (1984, J. Neurochem., 42:438-446). NAD^+ -linked isocitrate dehydrogenase was assayed as described by Lai and Clark (1976, Biochem. J., 154:423-432). Pyruvate and α-ketoglutarate dehydrogenase complexes were respectively assayed according to the methods of Lai and Sheu (1985, J. Neurochem., 45:1861-1868) and Lai and Cooper (1986) (J. Neurochem, 47:1376-1386).

[3] = target: T3, hexokinase (Rattus norvegicus, UniProt P05708); assay: Rat brain hexokinase with RAP; type: biochemical; settings: 20 μM RAP
T3 construct: following enzymes in rat brain subcellular fractions: α-ketoglutarate, isocitrate and cytosolic malate dehydrogenases, and hexokinase; from tissue; host or cells: rat brain subcellular fractions
Protocol: as §1

[4] = system: rats; assay: Effects of RAP in vivo, intravenous administration to rats; design: species or system rat; settings: 20 μmole/kg
Protocol: Animals. Brain tissue was obtained from young adult male Wistar rats (45-50 days old). In one series of experiments, rats that had previously been fed ad libidum were anesthetized with 4% halothane and a V-3 cannula was inserted in the femoral vein. The animals were immobilized by taping them to a lead brick. After they had recovered sufficiently, they were injected with the RAP solution. After initial observation for any side-reactions, the rats were untaped and their wounds were closed under anesthesia. The rats were then placed back in their cages for further observation.
The animals survived for 3 weeks before being killed.

[5] = system: phosphofructokinase; assay: Rat brain phosphofructokinase with RAP; type: biochemical; settings: 20 μM RAP
Protocol: as §1

[6] = system: rat brain lactate dehydrogenase; assay: Inhibition of rat brain lactate dehydrogenase (rat brain homogenate); type: biochemical; settings: for Relative Activity (%) Rat Brain: rat brain homogenate, 0.24 mM pyruvate, 0.1 mM NADH, pH 7.2, 25° C.
Protocol: as §1
The reaction mixture (1 ml) contained 0.24 mM sodium pyruvate, 0.1 mM
NADH, 100 mM potassium phosphate buffer (pH 7.2) and either purified
bovine heart lactate dehydrogenase (0.01 U) or rat brain homogenate
containing ~0.02 U of lactate dehydrogenase activity; 25° C.
Since APADpyruvate adduct and RAP have a tendency to revert to pyruvate
they were added to the reaction mixture just prior to addition of enzyme.
Because the kinetics obtained with tightbinding inhibitors depends on the
order of addition of substrates and inhibitors the enzyme was always adde
last. Each value is the average of at least 3 determinations. Each of the […]

[7] = Stability of pyruvate adducts in solution and on storage; type: physicochemical; settings: neutral ph solution; neutral pH values; read-out: t1/2 of reversion to free pyruvate
Protocol: The procedure used was a modification of that of Everse et al (1971, supra) for the synthesis of the NAD-pyruvate adduct Sodium pyruvate (15 mg) and NAD^+ (or NAD^+ analogue) (100 mg) were dissolved in deaerated water. The pH was brought to 11.0 with concentrated NaOH. After standing at room temperature for one hour, the solution was applied to the top of a column of Whatman DE-52 (2×3 cm), washed with deaerated distilled water. The column was eluted with 30 ml of 25 mM ammonium bicarbonate at 4° C. Unreacted pyruvate, NAD^+ and NAD^+ analogues were eluted in this fraction. The highly-colored (yellow-orange) adducts were eluted with 5-6 ml of 25 mM ammonium bicarbonate containing 4% NaCl. The fraction was split into approximately 1 ml portions, flushed with nitrogen, and stored at -70° C. […] Nevertheless, under the slightly alkaline conditions of storage and low temperature, these adducts remained stable for at least 3 months as judged by their continued potency toward inhibition of lactate dehydrogenase and maintenance of absorbance at 340 nm. […] The presence of a reactive carbonyl function was monitored as follows: 0.2-0.3 μ mole of the adduct was added to 50 μl of 0.1% 2,4-dinitrophenylhdrazine in 2 M HCl. […] The absorbance at 430 nm was compared to equivalent amounts of pyruvate and NAD^+ analogue taken through the same procedure. […]

T3 sequence (P05708 whole entry): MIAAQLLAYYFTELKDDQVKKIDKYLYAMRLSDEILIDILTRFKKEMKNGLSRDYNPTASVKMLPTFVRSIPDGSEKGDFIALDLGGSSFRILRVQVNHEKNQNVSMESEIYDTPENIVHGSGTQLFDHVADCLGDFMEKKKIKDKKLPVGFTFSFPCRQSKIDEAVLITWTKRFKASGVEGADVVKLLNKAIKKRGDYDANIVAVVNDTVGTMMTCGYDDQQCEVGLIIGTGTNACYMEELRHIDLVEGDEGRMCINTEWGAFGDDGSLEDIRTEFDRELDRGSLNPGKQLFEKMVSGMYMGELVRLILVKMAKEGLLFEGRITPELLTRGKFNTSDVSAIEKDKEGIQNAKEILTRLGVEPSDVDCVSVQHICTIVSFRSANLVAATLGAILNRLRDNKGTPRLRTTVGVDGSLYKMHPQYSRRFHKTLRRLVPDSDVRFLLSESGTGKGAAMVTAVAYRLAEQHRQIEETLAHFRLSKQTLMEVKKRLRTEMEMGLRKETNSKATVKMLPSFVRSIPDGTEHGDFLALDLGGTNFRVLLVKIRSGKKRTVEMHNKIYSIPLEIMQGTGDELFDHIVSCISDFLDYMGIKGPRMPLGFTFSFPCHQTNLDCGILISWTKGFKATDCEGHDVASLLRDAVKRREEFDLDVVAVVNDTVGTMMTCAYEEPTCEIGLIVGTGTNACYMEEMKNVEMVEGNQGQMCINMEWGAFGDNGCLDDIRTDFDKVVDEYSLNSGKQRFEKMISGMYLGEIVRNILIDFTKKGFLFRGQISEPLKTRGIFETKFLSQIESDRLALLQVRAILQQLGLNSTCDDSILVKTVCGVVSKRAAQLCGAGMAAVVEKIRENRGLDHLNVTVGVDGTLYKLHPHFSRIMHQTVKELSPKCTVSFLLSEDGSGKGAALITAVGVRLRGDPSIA
T2 sequence (P04797 whole entry): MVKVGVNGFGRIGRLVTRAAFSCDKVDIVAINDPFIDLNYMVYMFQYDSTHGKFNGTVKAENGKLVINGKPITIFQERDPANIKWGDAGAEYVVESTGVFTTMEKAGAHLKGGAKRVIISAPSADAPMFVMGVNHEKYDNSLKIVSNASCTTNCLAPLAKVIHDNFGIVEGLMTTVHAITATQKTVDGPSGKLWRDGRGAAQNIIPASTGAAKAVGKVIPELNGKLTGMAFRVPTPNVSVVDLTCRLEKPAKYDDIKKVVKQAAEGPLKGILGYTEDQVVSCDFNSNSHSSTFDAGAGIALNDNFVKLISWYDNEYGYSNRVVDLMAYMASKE
T1 sequence (P00346 25-338): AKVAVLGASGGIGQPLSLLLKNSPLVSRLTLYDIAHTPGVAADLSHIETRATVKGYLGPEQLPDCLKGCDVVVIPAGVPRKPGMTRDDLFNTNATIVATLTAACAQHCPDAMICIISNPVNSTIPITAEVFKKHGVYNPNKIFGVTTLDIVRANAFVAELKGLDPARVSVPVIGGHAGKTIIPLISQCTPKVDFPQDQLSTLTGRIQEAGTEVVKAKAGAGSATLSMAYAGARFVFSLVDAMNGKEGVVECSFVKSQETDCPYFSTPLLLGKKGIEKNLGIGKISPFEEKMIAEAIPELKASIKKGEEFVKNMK

Nc1ncnc2c1ncn2[C@@H]1O[C@H](COP(=O)(O)OP(=O)(O)OC[C@H]2O[C@@H](N3C=CC(CC(=O)C(=O)O)C(C=O)=C3)[C@H](O)[C@@H]2O)[C@@H](O)[C@H]1O (some centres unmarked) [RAP, 3(-4-(reduced 3-pyridinealdehyde-adeninedinucleotide))-pyruvate]
inhibition at 20 µM [1]: ≤ 20%
effect on rat brain glyceraldehyde-3-phosphate dehydrogenase [2]: little or no effect
effect on rat brain hexokinase [3]: similarly unaffected; also recorded: did not inhibit
side effects as judged by gross inspection of behavior [4]: no noticeable untoward effects; also recorded: no side effects were noted
survival before being killed [4]: 3 weeks
growth and feeding after injection ([4]; 3 weeks): grew and fed normally
gross post-mortem examination ([4]; after 3 weeks): no obvious tissue damage
effect on rat brain phosphofructokinase [5]: similarly unaffected
Relative Activity (%) Rat Brain ([6]; additive 42 nM): 80%
Relative Activity (%) Rat Brain ([6]; additive 84 nM): 56%
Relative Activity (%) Rat Brain ([6]; additive 132 nM): 43%
Relative Activity (%) Rat Brain ([6]; additive 180 nM): 30%
IC50 ([6]; standard reaction of Table 1, read-out: concentration required to inhibit the standard reaction by 50%): ~0.1 µM
half-life [7]: 1.5 h
